Results reported in patent publication US8828435B2, “Buccal delivery system” (Lingual Consegna Pty Ltd, priority 2006, dated 2014).
Where two headings read alike, the source gives them in different places.

Key:
[1] = Open-label clinical trial: plasma hormone pharmacokinetics after buccal LINGUET tablet, single dose and two weeks twice daily; type: in vivo, post-menopausal women; details: for absorption from the LINGUET tablet: achieved concentrations found in normal young menstruating women
Experimental: The trial was conducted with approval of an ethics committee within the hospital.
The excipients in the LINGUET tablets consisted of silica gel, magnesium stearate, acacia, stevia and polyethylene glycol with a wildberry flavour. The LINGUET tablets employed in this trial were formulated in a single batch for the study using the process according to the invention as described in example 2 above. The LINGUET tablets were provided by Richard Stenlake Compounding Pharmacist (Bondi Junction, Australia).
The study was an open-label investigation in six post-menopausal women. Before entry into the trial, subjects gave informed consent, and underwent medical and biochemical screening. Subjects were in general good health, and at least one year post-menopausal.
Subjects discontinued their prescribed HRT therapy as well as any herbal or alternative medicines not less than three days prior to the first study day. Subjects presented to the Clinical Trials Centre on the morning of each study day after an overnight fast. An indwelling cannula was inserted into a forearm vein and a baseline blood specimen collected.
On the first day, a half-LINGUET tablet was placed in the buccal cavity (between the cheek and the gum) and allowed to dissolve. Subjects were instructed not to swallow the formulation. […] Subjects rinsed their mouths with water at 45 min. Blood samples were collected via the cannula at timed intervals over 24 h. Subjects were discharged, but continued to take half a LINGUET tablet, twice daily, for the following two weeks. Subjects then re-presented to the Clinical Trials Centre where the morning dose was taken and further blood samples were collected at timed intervals over the dosage interval of 12 h.
Blood samples were schedule for collection following the single dose at the following times:
Pre-dose (0), 0.25, 0.5, 0.75, 1.0, 1.5, 2.0, 3.0, 4.0, 6.0, 8.0, 12.0, 16.0, […] and 24.0 h following the single dose, and at pre-dose (0), 0.25. 0.5, 0.75, 1.0, 2.0, 2.5, 3.0, 4.0, 6.0, 8.0, 10.0 and 12 h after the two-week dosing interval (steady-state). Actual times were recorded, and these were used for the pharmacokinetic calculations.
Plasma concentrations of hormones were determined using routine validated, radioimmunoassay techniques in the hospital laboratory (Sydpath, St Vincent's Hospital, Sydney). The laboratory is an accredited pathology provider that participates in national quality assurance programmes for hormonal analysis.
DHEA was monitored as the sulphate metabolite (DHEAS), not as the administered hormone.

[2] = background statement, cited from earlier work; for absorbed fraction of the ingested dose: oral
[3] = Hormone concentrations in saliva after buccal LINGUET tablet (radioimmunoassay); type: in vivo, post-menopausal women; details: elevation maintained over the following 8-12 hours
Experimental: Saliva was collected according to the standardized directions provided by the laboratory, Australian Reference Laboratories (Melbourne), and stored frozen (−20° C.) prior to shipping for hormonal analysis. In brief, subjects rinsed their mouths thoroughly with water and waited 5-10 min before swallowing any saliva in the mouth. Subjects then expressed saliva directly into the collection tubes.
Saliva samples were obtained for single dose estimation at the following times: pre-dose (0), and 1.0, 4.0, 8.0, 12.0, 16.0 and 24 h after dosing. For steady-state analysis, saliva was collected at pre-dose (0), and 1.0, 4.0, 8.0 and 12.0 h after LINGUET tablet administration.
Hormone concentrations in saliva were conducted by the […] (Melbourne) using validated, commercial radioimmunoassays. This laboratory is similarly an accredited pathology provider.

[4] = plasma, single and multiple dosing

SMILES: C[C@]12CC[C@H](O)CC1=CC[C@@H]1[C@@H]2CC[C@]2(C)C(=O)CC[C@@H]12 [DHEA, dehydroepiandrosterone]
- absorption from the LINGUET tablet ([1]; plasma): readily absorbed
- change of blood concentrations of DHEAS ([1]; single dose one-half LINGUET tablet (5 mg DHEA), over 5-10 hours): doubling
- oral bioavailability [2]: over 90%

SMILES: C[C@]12CC[C@H](OS(=O)(=O)O)CC1=CC[C@@H]1[C@@H]2CC[C@]2(C)C(=O)CC[C@@H]12 [DHEA-sulphate, dehydroepiandrosterone-sulphate]
- Tmax Day 1 ([1]; plasma, after the first dose (half LINGUET tablet, buccal)): 6.0 h
- Cmax ([1]; plasma, after the first dose (half LINGUET tablet, buccal), read-out: Cmax Day 1): 2.2 ± 1.1 nM
- Trough concentration at steady-state ([1]; plasma, after two weeks of twice daily half-tablet, six women, mean ± spread): 2.56 ± 1.99 nmol/L
- Tmax Steady-state ([1]; plasma, after two weeks of twice daily treatment): 1.5 h
- Cmax ([1]; plasma, after two weeks of twice daily treatment, read-out: Cmax Steady-state): 4 ± 2 nM

SMILES: C[C@]12CC[C@@H]3c4ccc(O)cc4CC[C@H]3[C@@H]1CC[C@@H]2O [Oestradiol, 17-β-oestradiol]
- concentrations in saliva compared with blood following use of the LINGUET tablet [3]: elevated many times higher than in blood

SMILES: CC(=O)[C@H]1CC[C@H]2[C@@H]3CCC4=CC(=O)CC[C@]4(C)[C@H]3CC[C@]12C [Progesterone, progesterone]
- Cmax ([1]; female, human, in vivo, Cmax Day 1): 22.9 ± 6.9 nM
- Cmax ([1]; female, human, in vivo, Cmax Steady-state): 26.1 ± 7.6 nM
- Tmax ([1]; female, human, in vivo, Tmax Day 1): 1.5 h
- Tmax ([1]; female, human, in vivo, Tmax Steady-state): 1 h
- plasma concentration at steady-state versus physiological level ([1]; in vivo): sustained at concentrations usually associated with physiological and biological activity in young normal women
- time until concentrations decreased to below those generally associated with biological activity in the endometrium ([1]; in vivo): within five hours
- concentrations in saliva compared with blood following use of the LINGUET tablet [3]: elevated many times higher than in blood

SMILES: C[C@]12CC[C@H]3[C@@H](CCC4=CC(=O)CC[C@@]43C)[C@@H]1CC[C@@H]2O [Testosterone, testosterone]
- Cmax ([1]; female, human, in vivo, plasma, after the first dose (half LINGUET tablet, buccal), read-out: Cmax Day 1): 31.6 ± 10.9 nM
- Tmax ([1]; female, human, in vivo, plasma, after the first dose (half LINGUET tablet, buccal), read-out: Tmax Day 1): 0.6 h
- concentration at 2 weeks ([1]; female, human, in vivo, plasma, after two weeks of twice daily half-tablet, six women, mean ± spread, read-out: Trough concentration at steady-state): 0.67 ± 0.28 nM
- duration of markedly increased plasma concentrations [1, 4]: up to 4 hours
- return to pre-treatment values [1, 4]: ≤ 8 h
- time of peak concentrations (mean) [1, 4]: 0.6 h
- absorption from the LINGUET tablet ([1]; plasma): readily absorbed

SMILES: NCCCC(O)(P(=O)(O)O)P(=O)(O)O [alendronate]
- absorbed fraction of the ingested dose [2]: about 1%

SMILES: O=P(O)(O)C(O)(Cc1cccnc1)P(=O)(O)O [risedronate]
- absorbed fraction of the ingested dose [2]: about 1%
